According to US20240425541A1, “OLIGOSACCHARIDE COMPOUNDS AND COMPLEXES” (priority 2021, published 2024):

Assays:
[1] = tested on: Hemagglutinin (HA) protein of the influenza strain California/7/2009; assay: Anti-Influenza HA IgG in serum by enzyme-linked immunosorbent assay after i.m. vaccination; assay type: in vivo; details: for IgG concentration against HA: oligosaccharide + Tween40 1:0.5, HA modRNA 0.5 μg i.m. prime/boost day 0/day 28, N/P6
hPBMCs = assay: Pro-inflammatory cytokine secretion by hPBMCs 24 hours after transfection (MSD Kit); assay type: cell-based, human; details: for Level of secretion of pro-inflammatory cytokines, IL-6, TNF-α, IL-1 and IFN-γ: oligosaccharide + Tween40 1:0.5, modRNA N/P 6, 24 hours, 10^6 hPBMCs
Method: All groups received modRNA formulated at N/P 6. Formulations were complexed with RNA in MBG Buffer (final concentration 5% w/v Glucose, 10 mM MES, pH 6.1), at RNA final concentration of 0.15 mg/ml and the mixing ratio of the RNA containing solution and the oligosaccharide+Tween40 containing solution was 9:1 (v:v) for all the cases. IL-6, TNF-α, IL-1p and IFN-γ secretion after 24 hours of transfection of 10^6 hPMBCs was evaluated in the supernatants using MSD Kit Standard Protocol.
FIG. 19A is a plot illustrating IL-6 secretion by hPBMCs upon exposure to different doses of tested formulations. FIG. 19B is a plot illustrating TNF-α secretion by hPBMCs upon exposure to different doses of tested formulations. FIG. 19C is a plot illustrating IL-1p secretion by hPBMCs upon exposure to different doses of tested formulations. FIG. 19D is a plot illustrating IFN-γ secretion by hPBMCs upon exposure to different doses of tested formulations. In the second part of the experiment, the same tested formulations were used in a vaccination study.

Influenza HA peptides = assay: CD4/CD8 T-Cell response to Influenza HA peptides by IFN-ELISPOT of splenocytes after i.m. vaccination; assay type: in vivo, influenza strain California/7/2009; details: JLF99 + Tween20 1:0.5, HA modRNA 1 μg i.m. prime/boost d0/d28, N/P 6
Influenza = assay: Virus neutralizing titers by VNT Assay after i.m. vaccination; assay type: in vivo, influenza strain California/7/2009; details: JLF99 + Tween20 1:0.5, HA modRNA 1 μg i.m. prime/boost d0/d28, N/P 6
Text: The animals were subjected to non-invasive serological surveillance over 49 days at different time points (day 0, day 14, day 21, day 28, day 49) and spleen was extracted at the end of the experiment for quantification of CD4/CD8 T-Cell response to Influenza HA peptides. Anti-Influenza HA antibodies in serum were quantified by enzyme-linked immunosorbent assay. Virus neutralizing titers were quantified by VNT Assay. CD4/CD8 T-Cell response was quantified by via IFN-ELISPOT of Splenocytes. FIG. 16A illustrates serological levels of specific IgG against HA over the course of the experiment. FIG. 16B illustrates Influenza specific neutralizing titers over the course of the experiment. FIG. 16C illustrates end-point titration of the serological levels of specific IgG against HA. FIG. 16D illustrates the CD8/CD4 response against HA-peptide pools.

female BALB/c mice = assay: In-vivo luciferase expression (bioluminescence) in applied tissue after i.m. injection of formulated modRNA or saRNA; details: modRNA i.m., N/P 6
Method: Eighteen female BALB/c mice were divided into […] study groups. All groups received the same amount of formulated luciferase encoding modRNA or saRNA (1 μg), applied i.m. to each leg. At […] time points (6 hours, 24 hours, 72 hours, 6 days, 8 days, 20 days), in-vivo luciferase expression in applied tissue was measured. Three modRNA groups were formulated with JRL13 at three different N/P Ratios (1, 6, or 12) and three saRNA groups were formulated with JRL13 at three different N/P Ratios (either 1, 6 or 12). N/P ratio is calculated based on the JRL13-RNA charges ratio, as described herein. […] FIG. 4C is a bar graph illustrating quantified bioluminescence over the duration of the experiment for example compositions having indicated N/P ratios comprising modRNA and JRL13. FIG. 4D is a bar graph illustrating quantified bioluminescence over the duration of the experiment for example compositions having indicated N/P ratios comprising saRNA and JRL13.
The present example examines the impact of different cationic groups on intramuscular delivery of saRNA. […] At six time points (6 hours, 24 hours, 72 hours, 6 days, 9 days, 20 days), in-vivo luciferase expression in applied tissue was measured. […] FIG. 5B is a bar graph illustrating quantified bioluminescence over the duration of the experiment and normalized to the JRL13-saRNA group. […]

CCHFV-Gc peptides = assay type: in vivo, Crimean-Congo Hemorrhagic Fever Virus; details: JLF99 + Tween40 1:0.5, Gc saRNA 1.3 μg i.m. prime/boost, C57BL/6 IFNAR −/− mice
[2] = tested on: Glycoprotein (Gc) of the Crimean-Congo Hemorrhagic Fever Virus (CCHFV); assay type: in vivo
[3] = Hydrodynamic diameter of complexes by dynamic light scattering (DLS); assay type: physicochemical
Method: Sizes of complexes described in the present examples were analyzed by DynaPro PlateReader II, using dynamic light scattering (DLS) for calculating the hydrodynamic diameter of complexes. The formulations are measured by diluting the sample to 0.0125 mg/mL RNA in 120 μl of MGB (10 mM MES, pH 6.1, 5% D-Glucose) 5% in wells of a 96-well plate. Ten acquisitions are recorded per well, each lasting 5 seconds.

[4] = JLF99 + Tween20 1:0.5, HA modRNA 1 μg i.m. prime/boost d0/d28, N/P 6

CCCCCCCCCC(=O)OC1C(OC(=O)CCCCCCCCC)[C@H](OC(=O)CCCCCCCCC)C(CSCCNC(=S)NCCN2CCOCC2)O[C@@H]1O[C@H]1OC(CSCCNC(=S)NCCN2CCOCC2)[C@@H](OC(=O)CCCCCCCCC)C(OC(=O)CCCCCCCCC)C1OC(=O)CCCCCCCCC (stereo partly drawn) [JLF99]
IgG against HA-antigen over the course of the experiment versus LNP benchmark [1, 4]: no apparent differences | Serological concentration of IgG at the end-point (day 49) [1, 4]: comparable to the LNP group | Delivery of and immune response to different RNA platforms ([1]; JLF99 + Tween20 1:0.5, taRNA, saRNA or modRNA 1 μg i.m. prime/boost, N/P 6): functionally delivered all the RNAs upon i.m injection and elicited a strong immune response | IgG concentration against HA [1]: then by JLF99 and JLF218 | Adjuvanticity (hPBMCs; oligosaccharide + Tween40 1:0.5, modRNA N/P 6): strong adjuvanticity | CD4-CD8 response versus LNP benchmark (Influenza HA peptides): no significant difference | Virus neutralizing titers versus LNP benchmark (Influenza): same findings | modRNA expression (bioluminescence normalized to the JLF41-modRNA group) (female BALB/c mice): promising modRNA expression | T-cell responses against Gc-peptides versus LNP benchmark (CCHFV-Gc peptides): equally strong | Immunological response to low immunogenic antigen CCHFV-Gc ([2]; JLF99 + Tween40 1:0.5, Gc saRNA 1.3 μg i.m. prime/boost d0/d28, N/P6, C57BL/6 IFNAR −/− mice): strong immunological response | Antibody levels versus LNP benchmark ([2]; after d28 (prior boost), JLF99 + Tween40 1:0.5, Gc saRNA 1.3 μg i.m., C57BL/6 IFNAR −/− mice): identical to the ones achieved by the LNP benchmark | Antibody level versus LNP benchmark ([2]; d14, JLF99 + Tween40 1:0.5, Gc saRNA 1.3 μg i.m., C57BL/6 IFNAR −/− mice): lower than the LNP | Hydrodynamic diameter ([3]; saRNA, N/P 6): about 150 nm

CCCCCCCCCC(=O)OC1C(OC(=O)CCCCCCCCC)[C@H](OC(=O)CCCCCCCCC)C(CSCCNC(=S)NCCN(C)C)O[C@@H]1O[C@H]1OC(CSCCNC(=S)NCCN(C)C)[C@@H](OC(=O)CCCCCCCCC)C(OC(=O)CCCCCCCCC)C1OC(=O)CCCCCCCCC (stereo partly drawn) [JLF41]
Difference in particle size between N/P 1 and N/P 6 ([3]; modRNA): greater difference

CCCCCCCCCC(=O)OC1C(OC(=O)CCCCCCCCC)[C@H](OC(=O)CCCCCCCCC)C(CSCCNC(=S)NCCn2ccnc2)O[C@@H]1O[C@H]1OC(CSCCNC(=S)NCCn2ccnc2)[C@@H](OC(=O)CCCCCCCCC)C(OC(=O)CCCCCCCCC)C1OC(=O)CCCCCCCCC (stereo partly drawn) [JLF110]
Level of secretion of pro-inflammatory cytokines, IL-6, TNF-α, IL-1 and IFN-γ (hPBMCs): medium levels of secretion

CCCCCCCCCC(=O)OC[C@@]1(O[C@H]2OC(CSCCNC(=S)NCCN3CCOCC3)[C@@H](OC(=O)CCCCCCCCC)C(OC(=O)CCCCCCCCC)C2OC(=O)CCCCCCCCC)O[C@H](CSCCNC(=S)NCCN2CCOCC2)[C@@H](OC(=O)CCCCCCCCC)[C@@H]1OC(=O)CCCCCCCCC (stereo partly drawn) [JLF218]
IgG concentration against HA [1]: then by JLF99 and JLF218

CCCCCCCCCC(=O)OC1C(OC(=O)CCCCCCCCC)[C@H](OC(=O)CCCCCCCCC)C(CSCCNC(=S)NCCN2CCC(C(N)=O)CC2)O[C@@H]1O[C@H]1OC(CSCCNC(=S)NCCN2CCC(C(N)=O)CC2)[C@@H](OC(=O)CCCCCCCCC)C(OC(=O)CCCCCCCCC)C1OC(=O)CCCCCCCCC (stereo partly drawn) [JLF244]
IgG concentration against HA [1]: highest IgG concentration | Level of secretion of pro-inflammatory cytokines, IL-6, TNF-α, IL-1 and IFN-γ (hPBMCs): highest level of secretion
